Values after ≈ are worked out from the molar mass of the structure shown.
What was measured:
[1] = tested on: RKO (human colon adenocarcinoma cell); assay: Solid tumor cell growth inhibition, MTT, 72 h (Example 7); format: cell-based; settings: Homo sapiens; 72 h, MTT, RKO
In short: (§1)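 4000 cells/well in DMEM high glucose with 10% FBS pre-cultured 24 h at 37 °C, 5% CO2, then exposed to tetrandrine derivatives at various concentrations for 72 h. Viability measured by MTT, expressed as % of untreated control.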

[2] = tested on: SK-OV-3 (ovarian cancer cell); assay: as above; format: cell-based; settings: Homo sapiens
In short: as §1

[3] = tested on: Huh7 (human liver cancer cell); assay: as above; format: cell-based; settings: Homo sapiens; 72 h, MTT, Huh-7
In short: as §1

A549 (human lung cancer) = assay: as above; format: cell-based; settings: Homo sapiens; 72 h, MTT, A549
In short: as §1

[4] = tested on: CNE (nasopharyngeal carcinoma cell); assay: as above; format: cell-based; settings: Homo sapiens
In short: as §1

[5] = tested on: Hela (human cervical cancer cell); assay: as above; format: cell-based; settings: Homo sapiens; 72 h, MTT, Hela
In short: as §1

[6] = tested on: U87 MG (malignant glioma cell); assay: as above; format: cell-based; settings: Homo sapiens, U-87 MG
In short: as §1

[7] = tested on: MGC 803 (human gastric cancer cell); assay: as above; format: cell-based; settings: Homo sapiens
In short: as §1

[8] = tested on: Becap37 (human breast cancer cell); assay: as above; format: cell-based; settings: Homo sapiens; 72 h, MTT, Becap-37
In short: as §1

[9] = tested on: RPMI8226 (multiple myeloma); assay: Multiple myeloma cell growth inhibition, MTT, 72 h (Example 6); format: cell-based, human; settings: Homo sapiens, RPMI-8226; 72 h, MTT, RPMI8226
In short: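 RPMI8226 cells (6000 per well) in RPMI 1640 with 10% FBS were exposed to a range of tetrandrine derivative concentrations for 72 h at 37 °C under 5% CO2. Viable cell concentration was then measured by MTT.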

[10] = tested on: H9 (acute lymphoblastic leukemia, ALL); assay: Leukemia cell growth inhibition, MTT, 72 h (Example 5); format: cell-based, human; settings: Homo sapiens; 72 h, MTT
In short: (§2)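 6000 cells/well in RPMI 1640 with 10% FBS exposed to graded derivative concentrations for 72 h at 37 °C, 5% CO2. Viable cell concentration then measured by MTT.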

[11] = tested on: Jurkat (acute lymphoblastic leukemia, ALL); assay: as above; format: cell-based, human; settings: Homo sapiens, Jurkat; 72 h, MTT
In short: as §2

[12] = tested on: K562/adr (drug-resistant, chronic myeloid leukemia, CML); assay: as above; format: cell-based, human; settings: Homo sapiens, K562/Adr; 72 h, MTT
In short: as §2

[13] = tested on: Kasumi-1 (acute myeloid leukemia M2 type, AML-M2); assay: as above; format: cell-based, human; settings: Homo sapiens, Kasumi 1
In short: as §2

[14] = tested on: NB4 (acute promyelocytic leukemia, AML); assay: as above; format: cell-based, human; settings: Homo sapiens; 72 h, MTT
In short: as §2

[15] = tested on: PANC-1 (pancreatic cancer); assay: Solid tumor cell growth inhibition, MTT, 72 h (Example 7); format: cell-based, human; settings: for IC50 / IC90: Homo sapiens, 72 h, MTT, PANC-1
In short: as §1

PC-3 (prostate cancer) = assay: as above; format: cell-based, human; settings: for IC50 / IC90: Homo sapiens, 72 h, MTT, PC-3
In short: as §1

[16] = tested on: CaES-17 (esophageal cancer cell); assay: as above; format: cell-based, human; settings: Homo sapiens, CaEs17; 72 h, MTT, CAES-17
In short: as §1

[17] = tested on: Hep-2 (laryngeal carcinoma); assay: as above; format: cell-based, human; settings: Homo sapiens; 72 h, MTT, Hep 2
In short: as §1

MG63 (osteosarcoma) = assay: as above; format: cell-based, human; settings: Homo sapiens; 72 h, MTT, MG-63
In short: as §1

SMILES: COc1ccc2cc1Oc1ccc(cc1)C[C@H]1c3cc(c(OC)cc3CCN1C)Oc1c(OC)c(OC)c(CNC3CC3)c3c1[C@H](C2)N(C)CC3 [BS-TE-301]
- IC50 [1]: 1.22 µg/mL (≈ 1.76 µM)
- IC90 [1]: 2.94 µg/mL (≈ 4.25 µM)
- IC50 [2]: 3.77 µg/mL (≈ 5.45 µM)
- IC90 [2]: 24.3 µg/mL (≈ 35.1 µM)
- IC50 [3]: 1.27 µg/mL (≈ 1.84 µM)
- IC90 [3]: 2.4 µg/mL (≈ 3.47 µM)
- IC50 (A549 (human lung cancer)): 5.1 µg/mL (≈ 7.37 µM)
- IC90 (A549 (human lung cancer)): > 16 µg/mL
- IC50 [4]: 3.7 µg/mL (≈ 5.35 µM)
- IC90 [4]: 6.2 µg/mL (≈ 8.96 µM)
- IC50 [5]: 1.97 µg/mL (≈ 2.85 µM)
- IC90 [5]: 3.83 µg/mL (≈ 5.54 µM)
- IC50 [6]: 0.69 µg/mL (≈ 0.997 µM)
- IC90 [6]: 3.05 µg/mL (≈ 4.41 µM)
- IC50 [7]: 1.74 µg/mL (≈ 2.51 µM)
- IC90 [7]: 7.1 µg/mL (≈ 10.3 µM)
- IC50 [8]: 2.3 µg/mL (≈ 3.32 µM)
- IC90 [8]: 5.6 µg/mL (≈ 8.09 µM)
- IC50 [9]: 0.06 µg/mL (≈ 0.0867 µM)
- IC90 [9]: 2.95 µg/mL (≈ 4.26 µM)
- IC50 [10]: 1.02 µg/mL (≈ 1.47 µM)
- IC90 [10]: 2.12 µg/mL (≈ 3.06 µM)
- IC50 [11]: 1.09 µg/mL (≈ 1.58 µM)
- IC90 [11]: 6.61 µg/mL (≈ 9.55 µM)
- IC50 [12]: 0.49 µg/mL (≈ 0.708 µM)
- IC90 [12]: 2.81 µg/mL (≈ 4.06 µM)
- IC50 [13]: 1.67 µg/mL (≈ 2.41 µM)
- IC90 [13]: 5.53 µg/mL (≈ 7.99 µM)
- IC50 [14]: 0.8 µg/mL (≈ 1.16 µM)
- IC90 [14]: 2 µg/mL (≈ 2.89 µM)
- IC50 [15]: 2.79 µg/mL (≈ 4.03 µM)
- IC90 [15]: 7.35 µg/mL (≈ 10.6 µM)
- IC50 (PC-3 (prostate cancer)): 3.02 µg/mL (≈ 4.36 µM)
- IC90 (PC-3 (prostate cancer)): 4.68 µg/mL (≈ 6.76 µM)
- IC50 [16]: 2.93 µg/mL (≈ 4.23 µM)
- IC90 [16]: 22.3 µg/mL (≈ 32.2 µM)
- IC50 [17]: 3.5 µg/mL (≈ 5.06 µM)
- IC90 [17]: 12.5 µg/mL (≈ 18 µM)
- IC50 (MG63 (osteosarcoma)): 2 µg/mL (≈ 2.89 µM)
- IC90 (MG63 (osteosarcoma)): 3.8 µg/mL (≈ 5.49 µM)

SMILES: COc1ccc2cc1Oc1ccc(cc1)C[C@H]1c3cc(c(OC)cc3CCN1C)Oc1c(OC)c(OC)c(CN(C)[C@@H](C)c3ccccc3)c3c1[C@H](C2)N(C)CC3 [BS-TE-317]
- IC50 [1]: 1.15 µg/mL (≈ 1.49 µM)
- IC90 [1]: 2.49 µg/mL (≈ 3.23 µM)
- IC50 [2]: 2 µg/mL (≈ 2.6 µM)
- IC90 [2]: 8.1 µg/mL (≈ 10.5 µM)
- IC50 [3]: 1.55 µg/mL (≈ 2.01 µM)
- IC90 [3]: 3.72 µg/mL (≈ 4.83 µM)
- IC50 (A549 (human lung cancer)): 2.2 µg/mL (≈ 2.86 µM)
- IC90 (A549 (human lung cancer)): 5.8 µg/mL (≈ 7.53 µM)
- IC50 [4]: 2.3 µg/mL (≈ 2.99 µM)
- IC90 [4]: 3.5 µg/mL (≈ 4.55 µM)
- IC50 [5]: 0.94 µg/mL (≈ 1.22 µM)
- IC90 [5]: 2.02 µg/mL (≈ 2.62 µM)
- IC50 [6]: 0.5 µg/mL (≈ 0.649 µM)
- IC90 [6]: 1.81 µg/mL (≈ 2.35 µM)
- IC50 [7]: 0.73 µg/mL (≈ 0.948 µM)
- IC90 [7]: 1 µg/mL (≈ 1.3 µM)
- IC50 [8]: 1.3 µg/mL (≈ 1.69 µM)
- IC90 [8]: 3.2 µg/mL (≈ 4.16 µM)
- IC50 [9]: 0.06 µg/mL (≈ 0.0779 µM)
- IC90 [9]: 1.49 µg/mL (≈ 1.94 µM)
- IC50 [10]: 0.7 µg/mL (≈ 0.909 µM)
- IC90 [10]: 1.11 µg/mL (≈ 1.44 µM)
- IC50 [11]: 1.13 µg/mL (≈ 1.47 µM)
- IC90 [11]: 4.75 µg/mL (≈ 6.17 µM)
- IC50 [12]: 0.36 µg/mL (≈ 0.468 µM)
- IC90 [12]: 1.58 µg/mL (≈ 2.05 µM)
- IC50 [13]: 0.88 µg/mL (≈ 1.14 µM)
- IC90 [13]: 3.57 µg/mL (≈ 4.64 µM)
- IC50 [14]: 0.9 µg/mL (≈ 1.17 µM)
- IC90 [14]: 2.1 µg/mL (≈ 2.73 µM)
- IC50 [15]: 1.4 µg/mL (≈ 1.82 µM)
- IC90 [15]: 4.18 µg/mL (≈ 5.43 µM)
- anti-PANC-1 activity increase over tetrandrine ([15]; compared with tetrandrine): 2 fold
- IC50 (PC-3 (prostate cancer)): 1.59 µg/mL (≈ 2.06 µM)
- IC90 (PC-3 (prostate cancer)): 2.14 µg/mL (≈ 2.78 µM)
- anti-PC-3 activity increase over tetrandrine (PC-3 (prostate cancer); compared with tetrandrine): ~4 fold
- IC50 [16]: 1.61 µg/mL (≈ 2.09 µM)
- IC90 [16]: 7.4 µg/mL (≈ 9.61 µM)
- IC50 [17]: 1.96 µg/mL (≈ 2.55 µM)
- IC90 [17]: 4.25 µg/mL (≈ 5.52 µM)
- IC50 (MG63 (osteosarcoma)): 1.3 µg/mL (≈ 1.69 µM)
- IC90 (MG63 (osteosarcoma)): 1.9 µg/mL (≈ 2.47 µM)

Source: patent US9133207B2, “Tetrandrine derivatives with substituted 5-carbon, preparation method and use thereof” (Hangzhou Bensheng Pharmaceutical Co., Ltd., priority 2011, dated 2015)
